From US20100233456A1, “LIGHT-STABILIZED POLYPROPYLENE” (SUMITOMO CHEMICAL COMPANY, LIMITED, priority 2007, published 2010) come the findings set out here.

By pKa is commonly meant the pH at which an ionisable group is half protonated. Read a low pKa as a stronger acid or weaker base.

Series [1] can be described thus: Acid dissociation constant (pKa) by titration method.
Method: The pKa value is an index showing an inherent nature of the compound having a 2,2,6,6-tetramethylpiperidyl group represented by the general formula (I), and is measured by a titration method known in the art, which is a measurement method of an acid dissociation constant based on a Brøsted's definition.
Series [2] in a line: Rate of weight loss by TG/DTA. Type of series: physicochemical. Conditions: heated in nitrogen gas from 25° C. to 300° C. at 10° C./minute. The method, then: Regarding the requirement (c), the rate of decrease in weight by heating under the above conditions is preferably less than 5%, and further preferably less than 3%, from a viewpoint of an emission amount of VOC and light stability. A rate of decrease in weight of the hindered amine light stabilizer (B) is measured using a thermo gravimetry differential thermal analyzer (hereinafter, referred to as TG/DTA). Specifically, the hindered amine light stabilizer (B) is heated from 25° C. to 300° C. at a rate of 10° C./minute in a nitrogen gas atmosphere, which gas is flowed at a constant rate of 100 mL/minute, thereby measuring the rate (percentage) of a weight loss to the original weight with a thermobalance.

Regarding `CN1C(C)(C)CC(OC(=O)CC(C(=O)OC2CC(C)(C)N(C)C(C)(C)C2)C(CC(=O)OC2CC(C)(C)N(C)C(C)(C)C2)C(=O)OC2CC(C)(C)N(C)C(C)(C)C2)CC1(C)C` (stereo not shown) [Example B-2, tetrakis(1,2,2,6,6-pentamethyl-4-piperidyl) 1,2,3,4-buteane tetracarboxylate], the pKa in series [1] came out at 8.9. Besides, in series [2], the “Rate of weight loss by TG-DTA” value is reported as 5.8%.

Turning to `CC1(C)CC(OC(=O)CCCCCCCCC(=O)OC2CC(C)(C)NC(C)(C)C2)CC(C)(C)N1` [Example B-3, bis(2,2,6,6-tetramethyl-4-piperidyl) sebacate], in series [2], the “Rate of weight loss by TG-DTA” value came to 19.6%.

For the molecule `CCCCCCCCON1C(C)(C)CC(OC(=O)CCCCCCCCC(=O)OC2CC(C)(C)N(OCCCCCCCC)C(C)(C)C2)CC1(C)C` [Example B-4, bis(1-octyloxy-2,2,6,6-tetramethylpiperidin-4-yl) sebacate], the “Rate of weight loss by TG-DTA” value in series [2] was determined as 68.6%.

As to `CC(C)(C)c1ccc(OC(=O)c2cc(C(C)(C)C)c(O)c(C(C)(C)C)c2)c(C(C)(C)C)c1` [Example B-6, 2,4-di-t-butylphenyl-3,5-di-t-butyl-4-hydroxybenzoate], the “Rate of weight loss by TG-DTA” value in series [2] is recorded as 31.6%.

In series [1], “N,N-bis(3-aminopropyl)ethylenediamine. 2,4-bis[N-butyl-N-(1,2,2,6,6-pentamethyl-4-piperidyl)amino]-6-chloro-1,3,5-triazine condensate [Example B-5]” showed a pKa of 9.2. For the same molecule, the “Rate of weight loss by TG-DTA” value in series [2] was determined as 0.6%.
